Assay: wn = mass fraction of the nth substance listed
Settings: Liquid, Vibrating tube method

CC(C)(N)CO [2-amino-2-methylpropan-1-ol] + O
Settings | mass density [kg/m3]
313.13 K, 500 kPa, w1 = 0.1997 | 989.5
313.13 K, 995 kPa, w1 = 0.2821 | 988.9
313.13 K, 998 kPa, w1 = 0.4002 | 985.4
313.13 K, 999 kPa, w1 = 0.4976 | 978.1
313.13 K, 1000 kPa, w1 = 0.1997 | 989.8
313.13 K, 2000 kPa, w1 = 0.1997 | 990.1
313.13 K, 2002 kPa, w1 = 0.2821 | 989.2
313.13 K, 2006 kPa, w1 = 0.4002 | 985.8
313.13 K, 2014 kPa, w1 = 0.4976 | 978.5
313.13 K, 2993 kPa, w1 = 0.2821 | 989.6
313.13 K, 2995 kPa, w1 = 0.4002 | 986.2
313.13 K, 3000 kPa, w1 = 0.1997 | 990.5
313.13 K, 3001 kPa, w1 = 0.4976 | 978.9
313.13 K, 3995 kPa, w1 = 0.4002 | 986.6
313.13 K, 4000 kPa, w1 = 0.1997 | 990.9
313.13 K, 4001 kPa, w1 = 0.2821 | 990
313.13 K, 4001 kPa, w1 = 0.4976 | 979.3
313.13 K, 4995 kPa, w1 = 0.2821 | 990.4
313.13 K, 4999 kPa, w1 = 0.4002 | 986.9
313.13 K, 4999 kPa, w1 = 0.4976 | 979.7
313.13 K, 5000 kPa, w1 = 0.1997 | 991.2
313.13 K, 5999 kPa, w1 = 0.4002 | 987.3
313.13 K, 6000 kPa, w1 = 0.1997 | 991.6
313.13 K, 6000 kPa, w1 = 0.4976 | 980.2
313.13 K, 6005 kPa, w1 = 0.2821 | 990.8
313.13 K, 6987 kPa, w1 = 0.2821 | 991.1
313.13 K, 6994 kPa, w1 = 0.4002 | 987.7
313.13 K, 6995 kPa, w1 = 0.4976 | 980.6
313.13 K, 7000 kPa, w1 = 0.1997 | 992
313.13 K, 7986 kPa, w1 = 0.4002 | 988.1
313.13 K, 7991 kPa, w1 = 0.2821 | 991.5
313.13 K, 8000 kPa, w1 = 0.1997 | 992.4
313.13 K, 8003 kPa, w1 = 0.4976 | 980.9
313.13 K, 8992 kPa, w1 = 0.4002 | 988.5
313.13 K, 8997 kPa, w1 = 0.2821 | 991.9
313.13 K, 8997 kPa, w1 = 0.4976 | 981.4
313.13 K, 9007 kPa, w1 = 0.1997 | 992.8
313.13 K, 9992 kPa, w1 = 0.4002 | 988.9
313.13 K, 9995 kPa, w1 = 0.2821 | 992.3
313.13 K, 9999 kPa, w1 = 0.4976 | 981.8
313.13 K, 10002 kPa, w1 = 0.1997 | 993.2
313.13 K, 10989 kPa, w1 = 0.4976 | 982.1
313.13 K, 10990 kPa, w1 = 0.2821 | 992.6
313.13 K, 10993 kPa, w1 = 0.4002 | 989.2
313.13 K, 11000 kPa, w1 = 0.1997 | 993.6
313.13 K, 11991 kPa, w1 = 0.2821 | 993
313.13 K, 11992 kPa, w1 = 0.4002 | 989.6
313.13 K, 11996 kPa, w1 = 0.4976 | 982.6
313.13 K, 12000 kPa, w1 = 0.1997 | 994
313.13 K, 12982 kPa, w1 = 0.2821 | 993.4
313.13 K, 13000 kPa, w1 = 0.1997 | 994.4
313.13 K, 13002 kPa, w1 = 0.4002 | 990
313.13 K, 13006 kPa, w1 = 0.4976 | 983
313.13 K, 13991 kPa, w1 = 0.2821 | 993.8
313.13 K, 13999 kPa, w1 = 0.4002 | 990.4
313.13 K, 14000 kPa, w1 = 0.1997 | 994.7
313.13 K, 14001 kPa, w1 = 0.4976 | 983.4
313.13 K, 14997 kPa, w1 = 0.2821 | 994.2
313.13 K, 14999 kPa, w1 = 0.4002 | 990.8
313.13 K, 15001 kPa, w1 = 0.4976 | 983.8
313.13 K, 15002 kPa, w1 = 0.1997 | 995.1
313.13 K, 15990 kPa, w1 = 0.2821 | 994.5
313.13 K, 15992 kPa, w1 = 0.4002 | 991.2
313.13 K, 15992 kPa, w1 = 0.4976 | 984.2
313.13 K, 16000 kPa, w1 = 0.1997 | 995.5
313.13 K, 16989 kPa, w1 = 0.2821 | 994.9
313.13 K, 16992 kPa, w1 = 0.4976 | 984.6
313.13 K, 16994 kPa, w1 = 0.4002 | 991.5
313.13 K, 17001 kPa, w1 = 0.1997 | 995.9
313.13 K, 17985 kPa, w1 = 0.4976 | 985
313.13 K, 17988 kPa, w1 = 0.2821 | 995.3
313.13 K, 17989 kPa, w1 = 0.4002 | 991.9
313.13 K, 18002 kPa, w1 = 0.1997 | 996.3
313.13 K, 18987 kPa, w1 = 0.2821 | 995.6
313.13 K, 18990 kPa, w1 = 0.4002 | 992.3
313.13 K, 18990 kPa, w1 = 0.4976 | 985.4
313.13 K, 19000 kPa, w1 = 0.1997 | 996.7
313.13 K, 19992 kPa, w1 = 0.4002 | 992.7
313.13 K, 19992 kPa, w1 = 0.4976 | 985.8
313.13 K, 19996 kPa, w1 = 0.2821 | 996
313.13 K, 20030 kPa, w1 = 0.1997 | 997.1
313.13 K, 20495 kPa, w1 = 0.4976 | 986
313.13 K, 20691 kPa, w1 = 0.4002 | 993
313.13 K, 20955 kPa, w1 = 0.2821 | 996.4
313.13 K, 21004 kPa, w1 = 0.1997 | 997.4
313.13 K, 22004 kPa, w1 = 0.1997 | 997.8
313.13 K, 23000 kPa, w1 = 0.1997 | 998.2
313.13 K, 24004 kPa, w1 = 0.1997 | 998.5
323.08 K, 1026 kPa, w1 = 0.2821 | 982.8
323.08 K, 2026 kPa, w1 = 0.2821 | 983.2
323.08 K, 2996 kPa, w1 = 0.2821 | 983.5
323.08 K, 4009 kPa, w1 = 0.2821 | 983.9
323.08 K, 5006 kPa, w1 = 0.2821 | 984.3
323.08 K, 6002 kPa, w1 = 0.2821 | 984.7
323.08 K, 6993 kPa, w1 = 0.2821 | 985.1
323.08 K, 7994 kPa, w1 = 0.2821 | 985.5
323.08 K, 9012 kPa, w1 = 0.2821 | 985.9
323.08 K, 9998 kPa, w1 = 0.2821 | 986.3
323.08 K, 11009 kPa, w1 = 0.2821 | 986.6
323.08 K, 11995 kPa, w1 = 0.2821 | 987
323.08 K, 12991 kPa, w1 = 0.2821 | 987.4
323.08 K, 14001 kPa, w1 = 0.2821 | 987.8
323.08 K, 14989 kPa, w1 = 0.2821 | 988.2
323.08 K, 15999 kPa, w1 = 0.2821 | 988.5
323.08 K, 16987 kPa, w1 = 0.2821 | 988.9
323.08 K, 17980 kPa, w1 = 0.2821 | 989.3
323.08 K, 18996 kPa, w1 = 0.2821 | 989.7
323.08 K, 19986 kPa, w1 = 0.2821 | 990.1
323.08 K, 20987 kPa, w1 = 0.2821 | 990.4
323.09 K, 1002 kPa, w1 = 0.4976 | 970.1
323.09 K, 1995 kPa, w1 = 0.4976 | 970.5
323.09 K, 3001 kPa, w1 = 0.4976 | 971
323.09 K, 4009 kPa, w1 = 0.4976 | 971.4
323.09 K, 5001 kPa, w1 = 0.4976 | 971.8
323.09 K, 5995 kPa, w1 = 0.4976 | 972.2
323.09 K, 7011 kPa, w1 = 0.4976 | 972.6
323.09 K, 7990 kPa, w1 = 0.4976 | 973
323.09 K, 9002 kPa, w1 = 0.4976 | 973.5
323.09 K, 9974 kPa, w1 = 0.4976 | 973.9
323.09 K, 10992 kPa, w1 = 0.4976 | 974.3
323.09 K, 11993 kPa, w1 = 0.4976 | 974.7
323.09 K, 12991 kPa, w1 = 0.4976 | 975.1
323.09 K, 13986 kPa, w1 = 0.4976 | 975.6
323.09 K, 14991 kPa, w1 = 0.4976 | 976
323.09 K, 15999 kPa, w1 = 0.4976 | 976.4
323.09 K, 16994 kPa, w1 = 0.4976 | 976.8
323.09 K, 18003 kPa, w1 = 0.4976 | 977.2
323.09 K, 18986 kPa, w1 = 0.4976 | 977.6

— the NIST ThermoML archive (doi:10.1021/je700406p)
